Experimental data from PubChem BioAssay (NCI).
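These data come from cells grown in 96-well plates and exposed to compound for 48 hours at five concentrations. GI50 marks 50% less growth. TGI: concentration producing complete growth inhibition.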

Key:
Assay in all cases: inhibition of tumour cell growth, NCI panel, 48 h
SK-MEL-5 melanoma = test system: SK-MEL-5 melanoma
SK-MEL-28 melanoma = test system: SK-MEL-28 melanoma
SK-OV-3 ovarian = test system: SK-OV-3 ovarian
RXF 393 renal = test system: RXF 393 renal
U251 CNS = test system: U251 CNS
MDA-MB-435 = test system: MDA-MB-435
SF-539 CNS = test system: SF-539 CNS
SW-620 colon = test system: SW-620 colon
HL-60(TB) leukemia = test system: HL-60(TB) leukemia
CCRF-CEM leukemia = test system: CCRF-CEM leukemia

| SMILES | GI50 (SK-MEL-5 melanoma) [µM] | TGI (SK-MEL-5 melanoma) [µM] | GI50 (SK-MEL-28 melanoma) [µM] | TGI (SK-MEL-28 melanoma) [µM] | GI50 (SK-OV-3 ovarian) [µM] | TGI (SK-OV-3 ovarian) [µM] | GI50 (RXF 393 renal) [µM] | TGI (RXF 393 renal) [µM] | GI50 (U251 CNS) [µM] | TGI (U251 CNS) [µM] | GI50 (MDA-MB-435) [µM] | TGI (MDA-MB-435) [µM] | GI50 (SF-539 CNS) [µM] | TGI (SF-539 CNS) [µM] | GI50 (SW-620 colon) [µM] | TGI (SW-620 colon) [µM] | GI50 (HL-60(TB) leukemia) [µM] | TGI (HL-60(TB) leukemia) [µM] | TGI (CCRF-CEM leukemia) [µM] | GI50 (CCRF-CEM leukemia) [µM] |
| --- | --- | --- | --- | --- | --- | --- | --- | --- | --- | --- | --- | --- | --- | --- | --- | --- | --- | --- | --- | --- |
| O=C(N/N=C/c1ccncc1)c1ccc(C(F)(F)F)nc1Nc1cccc(C(F)(F)F)c1 | 2.81 | 11.7 | 3.48 | 14.2 | 2.13 | 6.67 | 1.51 | 5.28 | 2.47 | 11.4 | 3.66 | 13.7 | 2.6 | 9.5 | 2.66 | 12.8 | 1.82 | 8.2 | – | – |
| O=c1c2cc(Br)ccc2[nH]c(=S)n1-c1ccccc1 | – | > 100 | – | > 100 | – | > 100 | – | – | – | > 100 | – | – | – | > 100 | – | > 100 | – | – | > 100 | – |
| O=NNc1ccc(Sc2ccc3ccccc3c2)cn1 | – | 39.1 | – | > 100 | – | > 100 | – | 4.12 | – | > 100 | – | – | – | > 100 | – | > 100 | – | 24.9 | 59.6 | – |
| CC(=O)Nc1cc(C(c2ccccc2)c2ccccc2)cc(C(c2ccccc2)c2ccccc2)c1C | 5.51 | > 100 | > 100 | > 100 | > 100 | > 100 | 27.5 | > 100 | 7.63 | > 100 | 6.81 | > 100 | > 100 | > 100 | 7.25 | > 100 | 3.1 | > 100 | – | – |
| Cc1cc(C(=O)N2CCN(C)CC2)c2c(=O)n(-c3ccccc3)c(=O)n(CC(O)CN3CCN(c4ncccn4)CC3)c2n1 (stereo unspecified) | > 100 | > 100 | > 100 | > 100 | > 100 | > 100 | – | – | > 100 | > 100 | > 100 | > 100 | > 100 | > 100 | > 100 | > 100 | > 100 | > 100 | – | – |
| Cc1nn2c(=O)n(-c3cccc(-n4nnc5c(-c6ccccc6)c(C)nn5c4=O)c3C)nnc2c1-c1ccccc1 | – | 33.8 | – | – | – | > 100 | – | > 100 | – | > 100 | – | – | – | 64 | – | 48.4 | – | 87.9 | > 100 | – |
| CC(C)(C)C1CCC(CI)(N=[N+]=[N-])CC1 (stereo unspecified) | – | > 100 | – | – | – | > 100 | – | > 100 | – | > 100 | – | – | – | > 100 | – | > 100 | – | > 100 | > 100 | – |
| CN(C)CCCNC(=O)c1cccc2nc3ccccc3nc12 | – | > 100 | – | 38.5 | – | > 100 | – | 34.6 | – | > 73.4 | – | – | – | 54.2 | – | > 54.9 | – | – | – | – |
| O=C1C=CC(=O)c2c1cc1ccccc1c2O | – | 24.5 | – | 20 | – | 34.3 | – | 4.98 | – | 27.1 | – | 19.2 | – | 25 | – | 3.59 | – | – | 5.91 | – |
| COc1ccc(C2c3cc4c(c(OC)c3CC3OCC(=O)C32)OCO4)cc1OC (stereo unspecified) | – | – | – | > 100 | < 0.01 | > 100 | – | – | < 0.01 | > 100 | – | > 100 | – | – | < 0.01 | > 100 | – | < 0.01 | < 0.01 | < 0.01 |
| Cc1ccc(-n2nnc3c(sc4ccccc43)c2=O)cc1 | 28.1 | > 100 | > 100 | > 100 | 3.54 | 19.4 | 16.8 | > 100 | 3.38 | 19 | 14.6 | > 100 | 5.23 | 30.6 | 26.2 | > 100 | > 100 | > 100 | – | – |
| CC[C@@]1(OC(=O)C(N)CCC(=O)O)C(=O)OCc2c1cc1n(c2=O)Cc2cc3ccccc3nc2-1 (stereo partly specified) | – | 0.36 | – | 51.8 | – | 3.33 | – | 0.757 | – | 1.98 | – | – | – | 0.0754 | – | > 21.1 | – | 0.508 | 0.247 | – |
| CCOc1ccc(/C=N\N2C(=O)c3ccccc3C2=O)cc1 | – | > 100 | – | > 100 | – | – | – | > 100 | – | – | – | – | – | > 100 | – | > 100 | – | > 100 | > 100 | – |
| COC(=O)[C@H]1CC(=O)C=C2CCCC21 (stereo partly specified) | – | > 100 | – | > 100 | – | > 100 | – | > 100 | – | > 100 | – | – | – | > 100 | – | > 100 | – | > 100 | > 100 | – |
| C=C(CS(=O)(=O)c1ccccc1)C(=O)OCC | – | – | – | 28.9 | – | 28 | – | 24.4 | – | 30.7 | – | – | – | 33.2 | – | 29.2 | – | – | 12.2 | – |
| CC1(C)C(=O)CCC(=O)C(C)(C)C2=CC=C(O2)C(C)(C)C(=O)CCC(=O)C(C)(C)C2=CC=C1O2 | – | – | – | > 100 | – | > 100 | – | > 100 | – | > 100 | – | – | – | – | – | > 100 | – | > 100 | > 100 | – |

| SMILES | GI50 (SK-MEL-5 melanoma) [µM] | TGI (SK-MEL-5 melanoma) [µM] | GI50 (SK-MEL-28 melanoma) [µM] | TGI (SK-MEL-28 melanoma) [µM] | GI50 (SK-OV-3 ovarian) [µM] | TGI (SK-OV-3 ovarian) [µM] | GI50 (RXF 393 renal) [µM] | TGI (RXF 393 renal) [µM] | GI50 (U251 CNS) [µM] | TGI (U251 CNS) [µM] | GI50 (MDA-MB-435) [µM] | TGI (MDA-MB-435) [µM] | GI50 (SF-539 CNS) [µM] | TGI (SF-539 CNS) [µM] | GI50 (SW-620 colon) [µM] | TGI (SW-620 colon) [µM] | GI50 (HL-60(TB) leukemia) [µM] | TGI (HL-60(TB) leukemia) [µM] | TGI (CCRF-CEM leukemia) [µM] | GI50 (CCRF-CEM leukemia) [µM] |
| --- | --- | --- | --- | --- | --- | --- | --- | --- | --- | --- | --- | --- | --- | --- | --- | --- | --- | --- | --- | --- |
| COc1ccc2oc(-c3cc4cc(OC)ccc4o3)cc2c1 | – | > 100 | – | > 100 | – | > 100 | – | > 100 | – | – | – | – | – | – | – | > 100 | – | > 100 | > 100 | – |
| CC(C)(C)C1CCP(=O)(c2ccccc2)CC1 (stereo unspecified) | – | > 100 | – | > 100 | – | > 100 | – | > 100 | – | > 100 | – | – | – | > 100 | – | > 100 | – | > 100 | > 100 | – |
| COc1cc(C2CC(=O)c3c(C)nn(-c4nc5ccccc5[nH]4)c3C2)cc(OC)c1OC (stereo unspecified) | > 100 | > 100 | > 100 | > 100 | 4.12 | > 100 | 2.12 | 7.8 | – | – | > 100 | > 100 | – | – | > 100 | > 100 | – | – | > 100 | > 100 |
| Cc1cn(C2CC(N=[N+]=[N-])C(CO)O2)c(=O)[nH]c1=O (stereo unspecified) | – | > 1000 | – | – | > 1000 | > 1000 | – | – | – | – | – | > 1000 | – | – | > 1000 | > 1000 | – | > 1000 | > 1000 | – |
| Cc1ccc(C)c(NC(=O)C(=O)CC(=O)c2cccc3ccccc23)c1 | – | > 100 | – | > 100 | – | > 100 | – | > 100 | – | > 100 | – | – | – | > 100 | – | > 100 | – | > 100 | > 100 | – |
| O=C(O)c1ccccc1-c1ccccc1C(=O)Nc1ccc2c(c1)Cc1ccccc1-2 | – | 31.6 | – | > 100 | – | > 100 | – | > 100 | – | > 100 | – | > 100 | – | 44.6 | – | > 100 | – | – | – | – |
| c1cc2ccc3cc2cc1CNCCOCCNCc1ccc2ccc(cc2c1)CNCCOCCNC3 | > 100 | > 100 | > 100 | > 100 | > 100 | > 100 | > 100 | > 100 | > 100 | > 100 | > 100 | > 100 | > 100 | > 100 | > 100 | > 100 | > 100 | > 100 | – | – |
| CCOC(=O)C/C(N)=C(\C#N)C(=O)OCC | – | > 100 | – | > 100 | – | > 100 | – | > 100 | – | > 100 | – | – | – | > 100 | – | > 100 | – | > 100 | > 100 | – |
| CC1=C(C(=O)Nc2cccc(C(F)(F)F)c2)C(c2ccccc2F)C(C(=O)Nc2cccc(C(F)(F)F)c2)=C(C)N1 | – | 18 | – | 23.7 | – | 25.9 | – | 15.5 | – | 27.1 | – | – | – | 23.8 | – | 22.7 | – | 7.98 | 12.4 | – |
| CN(C(=O)C12C3C4C1C1C2C3C41C(=O)N(C)C(C)(C)C)C(C)(C)C (stereo unspecified) | – | > 50 | – | > 50 | – | > 50 | – | – | – | > 50 | – | – | – | > 50 | – | > 50 | – | > 50 | > 50 | – |
| O=[N+]([O-])c1ccc(N/N=C/c2ccccc2O)nc1 | 1.61 | > 100 | 4.38 | > 100 | 2.54 | > 100 | 3.48 | > 100 | 1.69 | > 100 | 3.03 | > 100 | 2.68 | > 100 | 1.14 | > 100 | – | – | – | – |
| O=S1c2ccccc2N=C(c2ccc3ccccc3c2)CC1c1ccccc1F (stereo unspecified) | – | > 100 | – | > 100 | – | > 100 | – | > 100 | – | > 100 | – | – | – | > 100 | – | > 100 | – | > 100 | > 100 | – |
| COc1ccc(/C=c2\sc3nnc(CCC(=O)Nc4cccc(C(F)(F)F)c4)n3c2=O)cc1 | – | > 100 | – | > 100 | – | > 100 | – | 98.5 | – | > 100 | – | – | – | > 100 | – | > 100 | – | > 71.6 | 90.3 | – |
| COC(=O)CSc1n[nH]c(-c2ccccc2)n1 | – | > 100 | – | > 100 | – | > 100 | – | – | – | > 100 | – | – | – | > 100 | – | > 100 | – | > 100 | > 100 | – |
| S=C(Nc1ccc(Cl)cc1)SC1CCCCC1 | – | 30.5 | – | 49.6 | – | 94.9 | – | 58.9 | – | > 100 | – | > 100 | – | 61.3 | – | > 100 | – | – | > 100 | – |
| COc1cc(-c2ccccc2)c(OC)cc1CCl | – | > 100 | – | – | – | > 100 | – | > 100 | – | > 100 | – | – | – | > 100 | – | > 100 | – | > 100 | > 100 | – |
